The target in experiment [1] is T1, Alpha-2A adrenergic receptor (Homo sapiens, UniProt P08913). Also: in other assays of this panel Not Active means under 50% inhibition at 10 µM.
T1 sequence (P08913 whole entry): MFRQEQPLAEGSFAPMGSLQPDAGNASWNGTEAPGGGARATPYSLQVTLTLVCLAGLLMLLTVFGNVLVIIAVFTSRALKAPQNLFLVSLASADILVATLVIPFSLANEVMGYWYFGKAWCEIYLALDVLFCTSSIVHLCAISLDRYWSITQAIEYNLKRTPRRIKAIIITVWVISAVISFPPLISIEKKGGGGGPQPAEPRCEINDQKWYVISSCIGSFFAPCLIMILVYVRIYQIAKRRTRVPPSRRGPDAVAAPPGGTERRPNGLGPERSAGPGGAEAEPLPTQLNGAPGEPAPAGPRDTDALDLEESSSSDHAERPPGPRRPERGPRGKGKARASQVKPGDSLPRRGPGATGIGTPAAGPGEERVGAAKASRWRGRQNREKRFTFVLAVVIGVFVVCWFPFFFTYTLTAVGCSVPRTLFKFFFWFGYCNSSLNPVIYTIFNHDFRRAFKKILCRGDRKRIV
Type of experiment: cell membranes, Sf9, Membrane.

In experiment [2] the target is T2, Alpha-2C adrenergic receptor (Homo sapiens, UniProt P18825).
T2 sequence (P18825 whole entry): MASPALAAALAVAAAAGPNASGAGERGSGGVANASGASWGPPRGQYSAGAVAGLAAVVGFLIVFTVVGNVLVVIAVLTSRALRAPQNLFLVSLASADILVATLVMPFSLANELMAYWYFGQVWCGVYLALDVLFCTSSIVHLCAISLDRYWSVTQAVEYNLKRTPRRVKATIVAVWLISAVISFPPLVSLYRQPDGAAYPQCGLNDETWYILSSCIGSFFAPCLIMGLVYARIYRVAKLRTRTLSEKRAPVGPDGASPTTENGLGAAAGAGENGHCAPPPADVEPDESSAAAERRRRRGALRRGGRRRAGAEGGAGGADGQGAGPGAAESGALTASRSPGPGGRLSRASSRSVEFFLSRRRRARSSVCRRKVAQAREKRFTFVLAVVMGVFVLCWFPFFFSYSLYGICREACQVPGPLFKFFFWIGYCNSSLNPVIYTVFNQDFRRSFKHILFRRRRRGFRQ
In words: DRUGMATRIX: Adrenergic Alpha-2C radioligand binding (ligand: [3H] MK-912). Type of experiment: cell membranes, Sf9, Membrane. As to conditions: sf9.

For experiment [3], the target named is Beta-1 adrenergic receptor (Homo sapiens, UniProt P08588). As to the kind of experiment: DRUGMATRIX: Adrenergic beta1 radioligand binding (ligand: [125I] Cyanopindolol). Type of experiment: cell membranes, CHO-K1, Membrane. Conditions: cho-k1; Not Active = under 50% inhibition at 10 µM.
The target in experiment [4] is T3, Type-2 angiotensin II receptor (Homo sapiens, UniProt P50052). Also: in other assays of this panel Not Active means under 50% inhibition at 10 µM.
T3 sequence (P50052 whole entry): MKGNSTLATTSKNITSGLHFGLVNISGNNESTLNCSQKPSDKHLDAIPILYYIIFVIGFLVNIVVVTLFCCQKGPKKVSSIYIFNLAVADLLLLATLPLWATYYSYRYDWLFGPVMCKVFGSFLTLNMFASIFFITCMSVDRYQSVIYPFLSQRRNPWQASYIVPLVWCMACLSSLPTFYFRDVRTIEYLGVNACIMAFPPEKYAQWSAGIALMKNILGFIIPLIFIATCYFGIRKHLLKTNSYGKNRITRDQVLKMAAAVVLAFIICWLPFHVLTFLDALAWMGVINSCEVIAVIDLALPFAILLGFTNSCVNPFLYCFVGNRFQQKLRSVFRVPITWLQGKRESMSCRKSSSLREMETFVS
The class given is cell-based. Conditions: cho-k1.

The nature of experiment [5]: DRUGMATRIX: Calcium Channel Type L, Phenylalkylamine radioligand binding (ligand: [3H] (-)-Desmethoxyverapamil (D-888)). The class given is cell membranes, Rattus norvegicus, Wistar, Brain, Membrane. Conditions: Not Active = under 50% inhibition at 10 µM.
Experiment [6] is described as follows: DRUGMATRIX: GABAA, Flunitrazepam, Central radioligand binding (ligand: [3H] Flunitrazepam). Conditions: Not Active = under 50% inhibition at 10 µM. Type of experiment: cell membranes, Rattus norvegicus, Wistar, Brain, Membrane.
The next experiment addresses Insulin receptor (Rattus norvegicus, UniProt P15127). The class given is cell membranes, Wistar, Liver, Membrane.
In experiment [7] the target is T4, Neuropeptide Y receptor type 2 (Homo sapiens, UniProt P49146). Also: in other assays of this panel Not Active means under 50% inhibition at 10 µM.
T4 sequence (P49146 whole entry): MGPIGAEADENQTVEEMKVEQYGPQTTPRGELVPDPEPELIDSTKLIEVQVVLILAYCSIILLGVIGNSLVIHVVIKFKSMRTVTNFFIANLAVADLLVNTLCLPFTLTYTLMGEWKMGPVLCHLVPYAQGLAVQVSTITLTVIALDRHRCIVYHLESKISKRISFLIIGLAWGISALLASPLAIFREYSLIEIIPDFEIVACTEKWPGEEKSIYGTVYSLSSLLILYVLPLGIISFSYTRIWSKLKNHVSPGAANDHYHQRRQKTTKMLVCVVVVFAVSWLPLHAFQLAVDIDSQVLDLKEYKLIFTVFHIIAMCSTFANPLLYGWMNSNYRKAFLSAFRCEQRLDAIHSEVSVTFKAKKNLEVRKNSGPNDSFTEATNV
Type of experiment: cell membranes, Membrane. Conditions: kan-ts.

Experiment [8] addresses Receptor tyrosine-protein kinase erbB-2 (Homo sapiens, UniProt P04626). In words: biochemical. The class given is cell-based, Insect cells. Conditions: insect cells.
In experiment [9] the target is 5-hydroxytryptamine receptor 1B (Rattus norvegicus, UniProt P28564). Type of experiment: cell membranes, Wistar, Cerebral cortex, Membrane. Also: in other assays of this panel Not Active means under 50% inhibition at 10 µM.
Another experiment concerns the target T5, Adenosine receptor A1 (Homo sapiens, UniProt P30542).
T5 sequence (P30542 whole entry): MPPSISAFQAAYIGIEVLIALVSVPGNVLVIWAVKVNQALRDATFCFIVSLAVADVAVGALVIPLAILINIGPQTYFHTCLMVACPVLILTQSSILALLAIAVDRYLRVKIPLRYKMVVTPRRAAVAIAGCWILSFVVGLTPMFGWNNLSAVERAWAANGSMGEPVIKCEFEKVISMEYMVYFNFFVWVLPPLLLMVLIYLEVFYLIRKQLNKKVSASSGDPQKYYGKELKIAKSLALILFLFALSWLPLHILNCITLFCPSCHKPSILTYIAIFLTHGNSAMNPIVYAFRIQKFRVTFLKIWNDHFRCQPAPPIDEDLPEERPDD
Type of experiment: cell membranes, CHO, Membrane. Conditions: cho.

Chain of Beta-1 adrenergic receptor (P08588 whole entry): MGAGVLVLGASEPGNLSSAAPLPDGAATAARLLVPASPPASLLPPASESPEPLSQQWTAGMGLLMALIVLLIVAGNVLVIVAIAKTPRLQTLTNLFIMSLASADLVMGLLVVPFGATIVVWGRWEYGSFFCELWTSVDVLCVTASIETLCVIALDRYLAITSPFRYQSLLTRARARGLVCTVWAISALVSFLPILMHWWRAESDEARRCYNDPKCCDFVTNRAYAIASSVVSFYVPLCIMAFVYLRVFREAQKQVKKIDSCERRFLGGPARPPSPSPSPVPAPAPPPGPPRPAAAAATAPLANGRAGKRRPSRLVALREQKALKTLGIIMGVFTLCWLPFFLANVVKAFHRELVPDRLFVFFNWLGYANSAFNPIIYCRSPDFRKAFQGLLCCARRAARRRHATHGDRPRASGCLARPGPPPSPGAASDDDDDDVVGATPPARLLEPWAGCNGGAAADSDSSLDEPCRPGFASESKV
Chain of Insulin receptor (P15127 27-759 limits assumed): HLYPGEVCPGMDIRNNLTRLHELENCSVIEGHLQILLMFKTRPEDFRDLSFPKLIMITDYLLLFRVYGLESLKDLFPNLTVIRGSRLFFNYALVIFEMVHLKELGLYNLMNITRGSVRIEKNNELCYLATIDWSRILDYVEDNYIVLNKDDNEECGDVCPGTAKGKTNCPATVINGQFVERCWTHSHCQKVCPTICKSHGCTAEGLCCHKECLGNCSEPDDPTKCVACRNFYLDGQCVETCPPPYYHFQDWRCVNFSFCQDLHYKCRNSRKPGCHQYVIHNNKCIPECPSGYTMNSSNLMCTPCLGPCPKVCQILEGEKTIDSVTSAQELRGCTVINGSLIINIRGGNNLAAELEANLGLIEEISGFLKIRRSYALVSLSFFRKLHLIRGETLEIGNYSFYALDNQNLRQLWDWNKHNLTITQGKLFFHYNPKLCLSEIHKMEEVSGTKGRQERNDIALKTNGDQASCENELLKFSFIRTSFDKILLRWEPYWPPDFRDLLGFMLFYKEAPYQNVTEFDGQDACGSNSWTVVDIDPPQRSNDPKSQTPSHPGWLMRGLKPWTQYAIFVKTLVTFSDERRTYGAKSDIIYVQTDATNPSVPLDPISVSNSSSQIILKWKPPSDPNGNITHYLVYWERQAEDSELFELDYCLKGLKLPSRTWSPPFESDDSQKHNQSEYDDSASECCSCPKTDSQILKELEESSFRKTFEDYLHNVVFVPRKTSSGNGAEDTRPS
Chain of Insulin receptor (P15127 764-1383 limits assumed): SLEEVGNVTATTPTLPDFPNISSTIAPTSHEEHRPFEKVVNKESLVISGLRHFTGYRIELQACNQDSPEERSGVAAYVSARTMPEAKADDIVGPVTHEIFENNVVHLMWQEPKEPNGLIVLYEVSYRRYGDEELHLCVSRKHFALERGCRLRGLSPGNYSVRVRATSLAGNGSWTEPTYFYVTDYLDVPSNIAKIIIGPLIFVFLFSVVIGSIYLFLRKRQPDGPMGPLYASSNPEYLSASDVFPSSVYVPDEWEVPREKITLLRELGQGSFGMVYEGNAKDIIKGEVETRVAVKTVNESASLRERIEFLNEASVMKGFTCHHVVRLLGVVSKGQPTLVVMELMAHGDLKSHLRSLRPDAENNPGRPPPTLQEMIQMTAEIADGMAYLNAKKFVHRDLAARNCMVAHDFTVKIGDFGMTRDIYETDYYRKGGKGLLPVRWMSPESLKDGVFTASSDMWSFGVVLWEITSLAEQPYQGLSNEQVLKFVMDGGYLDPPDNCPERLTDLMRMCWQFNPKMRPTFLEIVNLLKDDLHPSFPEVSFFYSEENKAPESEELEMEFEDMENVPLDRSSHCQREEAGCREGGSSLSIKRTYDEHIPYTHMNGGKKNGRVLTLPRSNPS
Chain of Receptor tyrosine-protein kinase erbB-2 (P04626 whole entry): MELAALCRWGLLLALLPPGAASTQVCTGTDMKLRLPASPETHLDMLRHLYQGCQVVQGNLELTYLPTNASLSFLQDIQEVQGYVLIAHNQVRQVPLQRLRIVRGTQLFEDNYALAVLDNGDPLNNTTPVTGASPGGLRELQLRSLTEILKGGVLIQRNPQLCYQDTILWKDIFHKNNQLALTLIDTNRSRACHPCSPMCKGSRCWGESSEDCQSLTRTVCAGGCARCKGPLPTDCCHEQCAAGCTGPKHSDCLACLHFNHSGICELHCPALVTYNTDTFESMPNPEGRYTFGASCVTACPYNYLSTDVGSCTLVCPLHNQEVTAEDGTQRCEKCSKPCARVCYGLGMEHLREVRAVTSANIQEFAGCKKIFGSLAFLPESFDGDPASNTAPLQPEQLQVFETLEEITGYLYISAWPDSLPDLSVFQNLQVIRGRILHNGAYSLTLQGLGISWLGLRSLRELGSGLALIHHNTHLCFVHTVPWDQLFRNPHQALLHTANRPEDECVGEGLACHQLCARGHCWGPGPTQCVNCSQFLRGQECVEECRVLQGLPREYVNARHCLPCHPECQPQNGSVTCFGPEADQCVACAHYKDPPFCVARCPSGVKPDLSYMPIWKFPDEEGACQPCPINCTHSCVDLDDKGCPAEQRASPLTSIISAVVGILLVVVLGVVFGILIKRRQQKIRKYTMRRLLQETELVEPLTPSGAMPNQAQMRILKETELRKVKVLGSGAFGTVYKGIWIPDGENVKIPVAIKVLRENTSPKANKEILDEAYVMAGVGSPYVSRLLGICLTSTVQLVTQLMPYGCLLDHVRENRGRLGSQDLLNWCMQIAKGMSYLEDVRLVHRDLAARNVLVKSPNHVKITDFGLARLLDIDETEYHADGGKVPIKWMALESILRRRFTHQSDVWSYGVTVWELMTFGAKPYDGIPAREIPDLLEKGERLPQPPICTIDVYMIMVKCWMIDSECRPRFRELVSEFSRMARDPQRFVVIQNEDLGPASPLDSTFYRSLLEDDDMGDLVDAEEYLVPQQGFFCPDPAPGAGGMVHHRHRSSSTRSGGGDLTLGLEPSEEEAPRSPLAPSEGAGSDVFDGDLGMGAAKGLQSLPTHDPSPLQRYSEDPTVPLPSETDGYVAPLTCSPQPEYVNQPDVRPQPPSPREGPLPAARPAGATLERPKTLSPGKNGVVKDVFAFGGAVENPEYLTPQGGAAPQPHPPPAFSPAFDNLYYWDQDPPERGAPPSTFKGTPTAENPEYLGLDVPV
Chain of 5-hydroxytryptamine receptor 1B (P28564 whole entry): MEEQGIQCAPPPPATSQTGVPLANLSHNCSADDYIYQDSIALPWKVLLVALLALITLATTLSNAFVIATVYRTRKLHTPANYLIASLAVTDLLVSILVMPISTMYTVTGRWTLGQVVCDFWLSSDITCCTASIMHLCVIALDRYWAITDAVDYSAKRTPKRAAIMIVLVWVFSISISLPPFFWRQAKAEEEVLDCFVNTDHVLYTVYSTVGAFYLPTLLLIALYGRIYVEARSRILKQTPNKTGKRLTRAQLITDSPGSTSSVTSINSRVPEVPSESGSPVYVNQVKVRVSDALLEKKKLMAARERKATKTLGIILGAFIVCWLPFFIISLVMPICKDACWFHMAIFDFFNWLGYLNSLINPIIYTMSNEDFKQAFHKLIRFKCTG

In the case of `COc1ccc([C@@H]2Sc3ccccc3N(CCN(C)C)C(=O)[C@@H]2OC(C)=O)cc1` [DILTIAZEM], the IC50 (as a rule, the concentration that inhibits the measured activity by half) is “Not Active” in experiment [1] (sf9); “Not Active” in experiment [2]; “Not Active” in [3]; “Not Active” in [4]; 630 nM in [5] (read-out: IC50); “Not Active” in experiment [6]. Also, the half-inhibitory concentration (IC50) entry (on Insulin receptor; in experiment [7]; in [8]; in [9]; against Adenosine receptor A1) was “Not Active” each time. The Ki (in general, a measure of affinity in units of concentration, obtained from inhibition or displacement) was 612 nM in [5] (read-out: Ki) and “Not Active” in experiment [6].
In the case of `Cc1c(-c2ccccc2)oc2c(C(=O)OCCN3CCCCC3)cccc2c1=O` [FLAVOXATE], the half-maximal inhibitory concentration (IC50) entry in experiment [1] (sf9), in [2], in experiment [3], in experiment [4], in experiment [5] and in [6] was “Not Active” in each case. Besides, the IC50 result (at Insulin receptor; in [7]; in experiment [8]; in experiment [9]; against Adenosine receptor A1) was “Not Active” each time. For the same molecule, the inhibitory constant (Ki) result in [5] and in experiment [6] was “Not Active” in each case.
As to `O=C1OCCN1/N=C/c1ccc([N+](=O)[O-])o1` [FURAZOLIDONE], the IC50 entry in experiment [1] (sf9), in [2], in experiment [3], in [4], in experiment [5] and in experiment [6] was “Not Active” in each case. For the same molecule, the 50% inhibitory concentration (IC50) result (on Insulin receptor; in [7]; in experiment [8]; in experiment [9]; against Adenosine receptor A1) was “Not Active” each time. Moreover, the inhibition constant Ki entry in [5] and in experiment [6] was “Not Active” throughout.
Turning to `Fc1ccc([C@@H]2CCNC[C@H]2COc2ccc3c(c2)OCO3)cc1` [PAROXETINE], the half-maximal inhibitory concentration (IC50) entry in experiment [1] (sf9) was “Not Active”; in experiment [2], “Not Active”; in [3] it was “Not Active”; in [4], “Not Active”; in [5] (read-out: IC50) it was 747 nM; in experiment [6] it was “Not Active”. Also, the concentration for half-maximal inhibition (IC50) entry (on Insulin receptor; in experiment [7]; in experiment [8]; in [9]; on Adenosine receptor A1) was “Not Active” each time. Moreover, the Ki in experiment [5] (read-out: Ki) is 726 nM; in experiment [6], “Not Active”.
Turning to `COc1ccc(CN(CCN(C)C)c2ccccn2)cc1` [PYRILAMINE], the 50% inhibitory concentration (IC50) is 2980 nM in experiment [1] (read-out: IC50); “Not Active” in [2]; “Not Active” in experiment [3]; “Not Active” in experiment [4]; “Not Active” in experiment [5]; “Not Active” in [6]. Moreover, the IC50 entry (on Insulin receptor; in experiment [7]; in experiment [8]; in [9]; against Adenosine receptor A1) was “Not Active” each time. Moreover, the inhibition constant (Ki) in experiment [1] (read-out: Ki) is 1120 nM; in [5], “Not Active”; in experiment [6] it was “Not Active”.

Source of the values: ChEMBL document CHEMBL1909046, “DrugMatrix in vitro pharmacology data”.
